# Source: ChEMBL document CHEMBL1141087, “Differential response of estrogen receptor subtypes to 1,3-diarylindene and 2,3-diarylindene ligands” (J Med Chem, 2005)
# Assays:
# Estrogen receptor [1] = target: T1, Estrogen receptor (Homo sapiens, UniProt P03372)
# T1 sequence (P03372 whole entry): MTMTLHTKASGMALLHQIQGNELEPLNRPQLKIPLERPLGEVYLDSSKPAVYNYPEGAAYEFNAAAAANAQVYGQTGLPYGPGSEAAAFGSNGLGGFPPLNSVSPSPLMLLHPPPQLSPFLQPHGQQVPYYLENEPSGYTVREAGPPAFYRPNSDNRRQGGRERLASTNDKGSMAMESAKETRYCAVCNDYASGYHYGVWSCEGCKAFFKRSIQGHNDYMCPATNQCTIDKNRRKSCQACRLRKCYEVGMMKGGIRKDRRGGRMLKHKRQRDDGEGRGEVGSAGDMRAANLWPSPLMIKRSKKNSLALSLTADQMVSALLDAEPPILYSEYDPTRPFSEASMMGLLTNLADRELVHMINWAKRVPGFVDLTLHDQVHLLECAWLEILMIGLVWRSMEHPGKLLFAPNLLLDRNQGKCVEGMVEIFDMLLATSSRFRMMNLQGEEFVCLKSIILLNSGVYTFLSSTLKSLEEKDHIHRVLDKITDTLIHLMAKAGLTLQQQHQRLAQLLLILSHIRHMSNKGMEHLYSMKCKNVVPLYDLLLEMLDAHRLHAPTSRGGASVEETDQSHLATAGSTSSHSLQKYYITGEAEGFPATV
# Description: Transcriptional activation of estrogen receptor alpha in U2OS cell using estrogen-regulated luciferase reporter gene plasmid upon incubation for 20-30 mins at RT
# Estrogen receptor beta [2] = target: T2, Estrogen receptor beta (Homo sapiens, UniProt Q92731)
# T2 sequence (Q92731 whole entry): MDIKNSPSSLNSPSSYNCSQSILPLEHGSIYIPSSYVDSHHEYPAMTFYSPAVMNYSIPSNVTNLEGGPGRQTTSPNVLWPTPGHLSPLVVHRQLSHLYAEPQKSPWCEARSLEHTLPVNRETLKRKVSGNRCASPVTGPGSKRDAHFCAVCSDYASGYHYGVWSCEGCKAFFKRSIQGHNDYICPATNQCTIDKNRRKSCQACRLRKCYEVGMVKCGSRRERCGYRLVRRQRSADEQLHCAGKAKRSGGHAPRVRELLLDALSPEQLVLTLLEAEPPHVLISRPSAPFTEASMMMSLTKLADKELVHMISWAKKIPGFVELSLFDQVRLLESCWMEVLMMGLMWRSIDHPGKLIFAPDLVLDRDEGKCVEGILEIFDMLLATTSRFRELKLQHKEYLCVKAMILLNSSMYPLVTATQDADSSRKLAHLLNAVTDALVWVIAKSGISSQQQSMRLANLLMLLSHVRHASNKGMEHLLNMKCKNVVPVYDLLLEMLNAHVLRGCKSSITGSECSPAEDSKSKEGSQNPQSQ
# Estrogen receptor [3] = target: T1, Estrogen receptor; remark: listed apart in the source
# Estrogen receptor beta [4] = target: T2, Estrogen receptor beta; remark: listed apart in the source
# Description: Transcriptional activation of estrogen receptor beta in U2OS cell using estrogen-regulated luciferase reporter gene plasmid upon incubation for 20-30 mins at RT
EC50 (Estrogen receptor [1]) [nM],Ki (Estrogen receptor beta [2]) [nM],Ki (Estrogen receptor [3]) [nM],EC50 (Estrogen receptor beta [4]) [nM],SMILES
15,0.91,2.1,–,Oc1ccc(C2=C(c3ccc(C(F)(F)F)cc3)c3ccc(O)cc3C2)cc1
17,1.3,–,–,Cc1ccc(C2=C(c3ccc(O)cc3)Cc3cc(O)ccc32)cc1
427,–,–,–,CCC1=C(c2ccc(O)cc2)C(C(=O)Nc2ccc(O)cc2)c2cc(O)ccc21 (stereo not drawn)
–,0.46,4.2,–,NC(=O)c1ccc(C2=C(c3ccc(O)cc3)Cc3cc(O)ccc32)cc1
7,1.3,8.5,–,Oc1ccc(C2=C(c3ccc(O)cc3)c3ccc(O)cc3C2)cc1
17,0.49,24,–,Oc1ccc(C2=C(c3ccc(Cl)cc3)c3ccc(O)cc3C2)cc1
–,3.8,7.3,–,CC(=O)c1ccc(C2=C(c3ccc(O)cc3)Cc3cc(O)ccc32)cc1
158,–,–,52,CCC1=C(c2ccc(O)cc2)C(C(=O)O)c2cc(O)ccc21 (stereo not drawn)
3.9,2.8,–,10,Oc1ccc(C2=C(c3ccc(F)cc3)c3ccc(O)cc3C2)cc1
–,421,–,–,O=C(O)c1ccc(C2=C(c3ccc(O)cc3)Cc3cc(O)ccc32)cc1
109,15,59,–,Oc1ccc(C2=C(c3ccc(CBr)cc3)c3ccc(O)cc3C2)cc1
6.7,2.2,0.67,–,Nc1ccc(C2=C(c3ccc(O)cc3)Cc3cc(O)ccc32)cc1
100,147,184,–,CCC1=C(c2ccc(O)cc2)C(C(=O)Nc2ccc(OCCN3CCCCC3)cc2)c2cc(O)ccc21 (stereo not drawn)
4.3,–,–,54,Oc1ccc(C2=C(c3ccccc3)c3ccc(O)cc3C2)cc1
0.31,–,–,0.3,CCC1=C(c2ccc(O)cc2)Cc2cc(O)ccc21

SMILES,EC50 (Estrogen receptor [1]) [nM],Ki (Estrogen receptor beta [2]) [nM],Ki (Estrogen receptor [3]) [nM],EC50 (Estrogen receptor beta [4]) [nM]
Oc1ccc(C2=C(Cc3ccccc3)c3ccc(O)cc3C2)cc1,14,–,–,37
CCC1=C(c2ccc(O)cc2)C(CC)c2cc(O)ccc21 (stereo not drawn),0.059,–,–,0.3
CCC1=C(c2ccc(O)cc2)C(C(=O)Nc2ccc(OCCN(C)C)cc2)c2cc(O)ccc21 (stereo not drawn),152,–,–,512
Oc1ccc(C2=C(c3ccc(OCCN4CCCCC4)cc3)c3ccc(O)cc3C2)cc1,–,0.19,1.7,–
